One experiment deals with MeWo cells. Nature of the experiment: Dxr efflux measurement by fluorescence microscopy, MeWo cells. Type of experiment: cell-based, human. The conditions noted are these: 30 min in efflux buffer. The procedure: Dxr efflux measurements were carried out as previously described. Cells were seeded on coverslips in 24-well plates and allowed to grow to 80% confluence. Coverslips were incubated at 37 °C and 5% CO2 with 10 μM dxr in physiological buffer (140 mM NaCl, 5 mM KCl, 1 mM CaCl2, 1 mM MgSO4, 5 mM glucose, 20 mM HEPES, pH 7.4). After 2 h, three coverslips were immediately fixed with 4% PFA for the dxr loading control, rapidly washed with PBS and mounted in SlowFade Gold antifade reagent with DAPI (Invitrogen). The other coverslips (triplicated per condition) were incubated with physiological buffer supplemented with DMSO or 10 µM of PAH under gentle shaking at room temperature and protected from light. After 30 min, coverslips were fixed with 4% PFA, washed, and mounted as described above. For competition on dxr loading, A375 and WM9R cells seeded on coverslips were incubated for 1 h at 37 °C and 5% CO2 with 10 μM dxr in physiological buffer in the presence or the absence of 100 µM vemurafenib. Images were acquired with a Zeiss Axioplan 2 fluorescence microscope coupled to a digital charge-coupled device camera using a 40×/1.3 Plan NeoFluar objective and filters for Alexa 594. Dxr fluorescence was quantified using ImageJ software. Sampling of cells was performed randomly. About 100 cells (from three wells) were scored per condition per experiment.

In another experiment the target is T1, human Ptch1 (Homo sapiens, UniProt Q13635).
T1 construct: made in house; host or cells: yeast (membrane preparation)
T1 sequence (Q13635 1-1447): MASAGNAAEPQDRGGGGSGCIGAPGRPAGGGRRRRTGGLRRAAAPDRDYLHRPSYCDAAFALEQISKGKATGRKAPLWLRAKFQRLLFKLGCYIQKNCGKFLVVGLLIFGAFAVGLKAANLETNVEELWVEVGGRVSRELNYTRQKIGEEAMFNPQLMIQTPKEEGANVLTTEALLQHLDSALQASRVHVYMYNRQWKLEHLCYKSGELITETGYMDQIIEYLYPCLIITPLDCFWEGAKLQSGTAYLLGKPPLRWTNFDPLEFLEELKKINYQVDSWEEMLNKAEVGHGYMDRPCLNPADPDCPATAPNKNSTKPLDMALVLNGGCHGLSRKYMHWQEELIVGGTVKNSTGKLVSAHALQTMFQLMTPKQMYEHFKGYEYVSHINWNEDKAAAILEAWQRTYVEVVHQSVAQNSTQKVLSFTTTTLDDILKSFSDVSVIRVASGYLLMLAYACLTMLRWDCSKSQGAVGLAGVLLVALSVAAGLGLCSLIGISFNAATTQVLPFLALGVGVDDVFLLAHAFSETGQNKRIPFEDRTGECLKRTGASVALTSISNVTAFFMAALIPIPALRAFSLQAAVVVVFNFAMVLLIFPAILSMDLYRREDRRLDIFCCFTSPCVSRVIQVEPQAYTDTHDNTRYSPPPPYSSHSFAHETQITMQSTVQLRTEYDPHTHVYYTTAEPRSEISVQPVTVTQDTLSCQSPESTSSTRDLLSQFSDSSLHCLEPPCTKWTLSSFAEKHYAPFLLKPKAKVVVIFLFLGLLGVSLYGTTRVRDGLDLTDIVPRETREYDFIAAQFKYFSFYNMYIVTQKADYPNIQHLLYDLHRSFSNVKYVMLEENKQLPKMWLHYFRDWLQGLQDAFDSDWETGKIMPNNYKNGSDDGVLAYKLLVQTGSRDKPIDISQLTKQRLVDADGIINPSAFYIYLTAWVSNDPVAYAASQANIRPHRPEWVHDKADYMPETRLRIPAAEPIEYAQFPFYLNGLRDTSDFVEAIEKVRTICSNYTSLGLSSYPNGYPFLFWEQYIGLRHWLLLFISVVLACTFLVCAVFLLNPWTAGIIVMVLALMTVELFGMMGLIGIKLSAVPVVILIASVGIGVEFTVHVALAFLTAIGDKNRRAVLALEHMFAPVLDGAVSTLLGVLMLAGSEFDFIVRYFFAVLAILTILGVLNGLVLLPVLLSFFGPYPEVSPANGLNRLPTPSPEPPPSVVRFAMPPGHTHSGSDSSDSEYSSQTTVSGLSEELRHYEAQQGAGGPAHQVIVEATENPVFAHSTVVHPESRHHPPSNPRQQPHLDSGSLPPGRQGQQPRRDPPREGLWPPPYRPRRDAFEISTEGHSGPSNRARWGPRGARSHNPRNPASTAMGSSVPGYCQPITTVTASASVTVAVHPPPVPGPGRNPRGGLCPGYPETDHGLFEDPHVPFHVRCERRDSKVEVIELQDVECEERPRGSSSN
Nature of the experiment: Microscale thermophoresis on membranes from yeast expressing human Ptch1. It is filed as binding. The note with it: membranes from yeast expressing hPtch1; MST; mean of 3 experiments. The procedure:
Microscale thermophoresis (MST) is a biophysical technique that measures the strength of the interaction between two molecules by detecting a variation in the fluorescence signal of a fluorescently labeled target as a result of an IR-laser induced temperature change. The range of the variation in the fluorescence signal correlates with the binding of a ligand to the fluorescent target.
Membranes from yeast expressing human Ptch1 or human Smoothened were incubated at 30 µg/mL with 20 nM of the fluorescent dye NT-647 2nd gen (NanoTemper Technologies, München, Germany) to label the His-tag present at the c-terminus of both proteins. […] The fluorescence within the capillary is excited and detected through the same objective. […] The MST response of fluorescent proteins within the temperature gradient is detected. After activation of the IR laser, a decrease in fluorescence is observed which corresponds to temperature-related intensity change (TRIC) triggered by the fast temperature change and thermophoretic movement of the fluorescent proteins out of the heated sample volume. […] For analysis, the change in MST signal is expressed as the change in the normalized fluorescence (Fnorm), which is defined as F1/F0. […] The sPAH Kd was determined for 3 independent experiments.
On the technique in general: MST reads how a fluorescent partner responds to local heating, with and without ligand.

As usually defined, the Kd is the equilibrium constant for the complex coming apart. Lower therefore signals higher affinity.

Values joined by “and” are separate entries in the source; they are usually repeats but may differ in a detail not shown here. Equal entries are not always repeated.

For the compound `COc1cc(C)c(CC/C(C)=C/Cc2cc(O)ccc2O)c(C)c1C` [sPAH, Panicein A hydroquinone], the “inhibition of dxr efflux, synthetic compared with natural PAH” value with MeWo cells is on record as “as efficiently as the natural PAH”. Also, the Kd at human Ptch1 is ~7 µM and 7.2 µM.

The values are drawn from article PMC7352342, “Inhibition of Patched Drug Efflux Increases Vemurafenib Effectiveness against Resistant Braf^V600E Melanoma” (Cancers, 2020).
